The nature of data set [1]: Plasma alpha-d-tocopherol level, Patient A. Format: in vivo, human. The note with it: despite high dose supplementation. How it is done: The vit E dose was increased over several weeks and is now in the range recommended for neurological complications of vit E deficiency (100-200 mg/kg/day alpha-d-tocopherol). Sokol et al. Gastroenterology 1993; 104(6):1727-35. […] All speech therapy and occupational therapy has been phased out due to this rapid and remarkable improvement within 5 months of beginning therapy, at which point it was felt by all evaluators to no longer be necessary.

The subject of a further data set is global apraxia/dyspraxia. Kind of data set: Case study Patient A: clinical observation of speech, coordination, tone and sensory symptoms. Format: in vivo, human. The note with it: for speech clarity and energy level/stamina: coenzyme Q 100 mg/day, vitamin C 250 mg/day and alpha-lipoic acid 300 mg/day added together to regimen, within 1 week.
The conditions of data set [2]: cited from earlier work.

Usually pKa stands for the negative logarithm of the acid dissociation constant.

Procedure for global apraxia/dyspraxia: They were placed on omega 3/6/9 fatty acid therapy.
In addition Vitamin K (to prevent adverse effect of vitamin K antagonism by high dose vitamin E), a complete multi-vitamin combination (with selenium, zinc and high B-complex and additional fat soluble vitamins) was also added to the daily regimen.

For `Cc1c(C)c2c(c(C)c1O)CC[C@@](C)(CCC[C@H](C)CCC[C@H](C)CCCC(C)C)O2` [alpha-d-tocopherol], the “change of plasma levels of alpha-d-tocopherol” value in data set [1] is recorded as “did not change”.

`COC1=C(OC)C(=O)C(C/C=C(\C)CC/C=C(\C)CC/C=C(\C)CC/C=C(\C)CC/C=C(\C)CC/C=C(\C)CC/C=C(\C)CC/C=C(\C)CC/C=C(\C)CCC=C(C)C)=C(C)C1=O` [coenzyme Q, 2,3-dimethoxy-5-methyl-6-polyprenyl-1,4-benzoquinone]: the “speech clarity and energy level/stamina” value with global apraxia/dyspraxia is “increased clarity of speech and improved energy level/stamina”.

As for `O=C(O)CCCCC1CCSS1` (stereo not drawn) [lipoic acid, α-lipoic acid], the “speech clarity and energy level/stamina” value with global apraxia/dyspraxia was “increased clarity of speech and improved energy level/stamina”. For the same molecule, in data set [2], the pKa is given as 4.7.

As to `C[C@@H]1[C@H](O)[C@@H](C)/C=C/C=C/CC/C=C/C=C/C=C/C=C/C(O[C@H]2O[C@H](C)[C@@H](O)[C@H](N)[C@@H]2O)CC2O[C@](O)(CC(O)C(O)CCC(O)CC(O)CC(O)CC(=O)O[C@H]1C)CC(O)C2C(=O)O` (some centres unmarked) [nystatin], the neurologic benefits entry with global apraxia/dyspraxia is reported as “Further neurologic benefits”.

Consider `C[C@]12C=CC(=O)C=C1CC[C@@H]1[C@@H]2C(=O)C[C@@]2(C)[C@H]1CC[C@]2(O)C(=O)CO` [prednisone], for which the “speech, coordination and behavior” value in the data set with global apraxia/dyspraxia (oral, used for allergic reactions and asthma exacerbations triggered by food allergy) was “improvement in speech, coordination and behavior”.

With `O=C1O[C@H]([C@@H](O)CO)C(O)=C1O` [vitamin C, ascorbic acid], in the data set with global apraxia/dyspraxia, the “speech clarity and energy level/stamina” value is “increased clarity of speech and improved energy level/stamina”.

As for Polyenylphosphatidylcholine, in the data set on global apraxia/dyspraxia (3 grams/day, within a week of supplementation), the “stearrhea (fat absorption)” value was “decreased in stearrhea”.

Values taken from patent publication US10398671B2, “Fatty acid formulations and methods of use thereof” (Children's Hospital & Research Center at Oakland, priority 2007, dated 2019).
